Data as given in patent publication US7897772B2, “Acid addition salt of irinotecan” (priority 2004, dated 2011).
Structures can show the parent of a compound that is named as a salt.

Legend:
[1] = Peroral absorbability in beagles: plasma irinotecan level and pharmacokinetic analysis (Example 6); assay type: in vivo; conditions: for Plasma irinotecan level (no mean given): peroral capsule
Text: To each beagle, a solid chow (about 350 g) was fed once a day at around 3 p.m., and the unconsumed chow was removed at around 9 a.m. on the following day, except that on the day before the day of administration the unconsumed chow was removed about two hours after feeding. On the day of administration, blood was drawn three hours after administration and the chow was fed after blood collection. On the day after the day of administration, the unconsumed chow was removed at 9 a.m.
After administration, tap water (about 20 mL) was fed to the mouth of the beagle by use of an injection syringe.
The thus-collected blood samples were dispensed into 1.5-mL tubes, to which heparin sodium (20 μL, 20 units) had been added in advance and which had been dried under nitrogen flow (tubes employed for the first administration were not dried). The samples were centrifuged (4° C., about 13,000×g, one minute) to thereby obtain plasma.
The lower quantification limit was […] plasma.
Non-compartmental analysis of the obtained data was performed by use of a WinNonlin Ver4.1. Data of the following pharmacokinetic parameters were obtained.
Final phase half-time (T1/2),
Time to reach maximum plasma level (Tmax),
Maximum plasma level (Cmax),
Area under time-level curve to infinite time (AUC0-inf),
Bioavailability (BA), wherein
Mean absorption time (MAT), wherein
MAT(h)=(mean residence time (MRT0-inf) after oral administration)−(mean residence time (MRT0-inf) after intravenous injection).

[2] = Dissolution of irinotecan acid addition salts in water at 100 mg/mL at room temperature and state of the solution after 6 days of stirring (Example 1); assay type: physicochemical; conditions: for Dissolution of the salt in water at room temperature: salt content adjusted to 100 mg/mL, no heating
Protocol: To an aqueous suspension of irinotecan (1-ethyl-10-[4-(1-piperidino)-1-piperidino]carbonyloxycamptothecin) produced through the method disclosed in Patent Document 1, each acid species was added, to thereby produce a corresponding irinotecan acid addition salt. The irinotecan acid addition salt content was adjusted to 100 mg/mL. […] Each of the aqueous solutions employing sulfuric acid, phosphoric acid methanesulfonic acid, citric acid, maleic acid, and succinic acid, respectively, was filtered by a membrane filter, and the filtrate was stirred at room temperature (25° C.). After continuous stirring for 6 days, the aqueous solution was visually observed so as to evaluate the state of the solution.

CCc1c2c(nc3ccc(OC(=O)N4CCC(N5CCCCC5)CC4)cc13)-c1cc3c(c(=O)n1C2)COC(=O)[C@]3(O)CC [Irinotecan (7-ethyl-10-[4-(1-piperidino)-1-piperidino]carboxyoxycamptothecin) hydrochloride, reference compound]
concentration at 3 h ([1]; male, beagle, dog, plasma, oral, 10 mg/kg, peroral, 10 mg/kg as irinotecan, 3 h, mean (n=6) ± SD): 2010 ± 450 ng/mL
concentration at 4 h ([1]; male, beagle, dog, plasma, oral, 10 mg/kg, peroral, 10 mg/kg as irinotecan, 4 h, mean (n=6) ± SD): 1620 ± 390 ng/mL
concentration at 6 h ([1]; male, beagle, dog, plasma, oral, 10 mg/kg, peroral, 10 mg/kg as irinotecan, 6 h, mean (n=6) ± SD): 947 ± 363 ng/mL
concentration at 8 h ([1]; male, beagle, dog, plasma, oral, 10 mg/kg, peroral, 10 mg/kg as irinotecan, 8 h, mean (n=6) ± SD): 538 ± 264 ng/mL
concentration at 12 h ([1]; male, beagle, dog, plasma, oral, 10 mg/kg, peroral, 10 mg/kg as irinotecan, 12 h, mean (n=6) ± SD): 179 ± 138 ng/mL
AUC(0-inf) ([1]; male, beagle, dog, plasma, po, 10 mg/kg, peroral, 10 mg/kg as irinotecan, mean ± SD (number of samples in parentheses), read-out: AUC0-inf (area under time-level curve to infinite time)): 11200 ng·h/mL
Cmax ([1]; male, beagle, dog, plasma, po, 10 mg/kg, peroral, 10 mg/kg as irinotecan, mean ± SD (number of samples in parentheses), read-out: Cmax (maximum plasma level)): 2030 ng/mL
Tmax ([1]; male, beagle, dog, plasma, po, 10 mg/kg, peroral, 10 mg/kg as irinotecan, mean ± SD (number of samples in parentheses), read-out: Tmax (time to reach maximum plasma level)): 2.83 ± 0.41 h
BA (bioavailability) ([1]; peroral 10 mg/kg as irinotecan, AUC0-inf oral ÷ AUC0-inf intravenous × 100, listed as irinotecan hydrochloric acid addition salt, hydrochloride): 48.80%
Plasma irinotecan level (no mean given) ([1]; 10 mg/kg as irinotecan, 10 min after administration, hydrochloride, 10 mg/kg): —^b) (≧3 Beagles of a group consisting of six beagles exhibited a plasma level of ≦5 ng/mL.)
Plasma irinotecan level (no mean given) ([1]; 10 mg/kg as irinotecan, 20 min after administration): — (≧3 Beagles of a group consisting of six beagles exhibited a plasma level of ≦5 ng/mL.)
Dissolution of the salt in water at room temperature ([2]; listed as hydrochloric acid, hydrochloride): not dissolved in water at room temperature

CCc1c2c(nc3ccc(OC(=O)N4CCC(N5CCCCC5)CC4)cc13)-c1cc3c(c(=O)n1C2)COC(=O)[C@]3(O)CC [Irinotecan citric acid addition salt, irinotecan citric acid salt]
State of the Solution after Day 6 ([2]; 100 mg/mL aqueous solution, membrane-filtered, stirred at room temperature (25° C.) for 6 days, visually observed): No crystal deposited
Dissolution of the salt in water at room temperature ([2]; listed as citric acid): dissolved in water at room temperature

CCc1c2c(nc3ccc(OC(=O)N4CCC(N5CCCCC5)CC4)cc13)-c1cc3c(c(=O)n1C2)COC(=O)[C@]3(O)CC [Irinotecan fumaric acid addition salt, reference compound]
Dissolution of the salt in water at room temperature ([2]; listed as fumaric acid): not dissolved in water at room temperature

CCc1c2c(nc3ccc(OC(=O)N4CCC(N5CCCCC5)CC4)cc13)-c1cc3c(c(=O)n1C2)COC(=O)[C@]3(O)CC [Irinotecan maleic acid addition salt, irinotecan maleic acid salt]
Dissolution of the salt in water at room temperature ([2]; listed as maleic acid): dissolved in water at room temperature

CCc1c2c(nc3ccc(OC(=O)N4CCC(N5CCCCC5)CC4)cc13)-c1cc3c(c(=O)n1C2)COC(=O)[C@]3(O)CC [Irinotecan phosphoric acid addition salt, irinotecan phosphoric acid salt]
Dissolution of the salt in water at room temperature ([2]; listed as phosphoric acid): dissolved in water at room temperature

CCc1c2c(nc3ccc(OC(=O)N4CCC(N5CCCCC5)CC4)cc13)-c1cc3c(c(=O)n1C2)COC(=O)[C@]3(O)CC [Irinotecan succinic acid addition salt, irinotecan succinic acid salt]
Dissolution of the salt in water at room temperature ([2]; listed as succinic acid): dissolved in water at room temperature

CCc1c2c(nc3ccc(OC(=O)N4CCC(N5CCCCC5)CC4)cc13)-c1cc3c(c(=O)n1C2)COC(=O)[C@]3(O)CC [irinotecan methanesulfonic acid salt]
bioavailability ([1]; male, beagle, dog, plasma, po, 10 mg/kg, peroral 10 mg/kg as irinotecan, AUC0-inf oral ÷ AUC0-inf intravenous × 100, read-out: BA (bioavailability)): 61 ± 3.84%
